The results in this text go back to US20210395210A1, “INHIBITION OF BACTERIAL CHAPERONIN SYSTEMS” (THE TRUSTEES OF INDIANA UNIVERSITY, priority 2018, published 2021).

One data set in a line: in vitro. The conditions noted are these: human. As to the method:
HEK 293 cells were maintained in MEM medium (Corning Cellgro, 10-009 CV) supplemented with 10% FBS (Sigma, F2242). […] Cells at 80% confluence were harvested and diluted in growth medium, then 45 μL of the THLE-3 cells (1,500 cells/well) or HEK 293 cells (1,500 cells/well) were dispensed per well, and plates were sealed with “Breathe Easy” oxygen permeable membranes (Diversified Biotech) and incubated at 37° C., 5% CO2, for 24 h.

A further data set has as its target T1, E. coli GroEL/ES (Escherichia coli, UniProt P0A6F5).
T1 construct: made in house; host or cells: GroEL in E. coli DH5α; GroES in E. coli BL21 (DE3)
The experiment in a line: GroEL/ES-mediated dRho refolding assay. It counts as biochemical. As for the experimental part:
Reagent preparation: For this assay, five primary reagent stocks were prepared: 1) GroEUES-dRho binary complex stock; 2) ATP initiation stock; 3) thiocyanate enzymatic assay stock; 4) formaldehyde quench stock; 5) ferric nitrate reporter stock. Denatured rhodanese (dRho) was prepared by 3-fold dilution of rhodanese (Roche product #R1756, diluted to 10 mg/mL with H2O) with denaturant buffer (12 M Urea, 50 mM Tris-HCl, pH 7.4, and 10 mM DTT). Rhodanese was completely denatured by incubating at room temperature for 45 min. The binary complex solution was prepared by slowly adding the dRho stock to a stirring stock of concentrated GroEL in modified folding buffer (50 mM Tris-HCl, pH 7.4, 50 mM KCl, 10 mM MgCl2, 5 mM Na2S2O3, and 1 mM DTT). The solution was centrifuged at 16,000×g for 5 minutes, and the supernatant was collected and added to a solution of GroES in modified folding buffer to give final protein concentrations of 100 nM GroEL, 120 nM GroES, and 80 nM dRho. The binary complex stock was prepared immediately prior to use. For the ATP initiation stock, ATP solid was diluted into modified folding buffer to a final concentration of 2.0 mM. The thiocyanate enzymatic assay stock was prepared to contain 70 mM KH2PO4, 80 mM KCN, and 80 mM Na2S2O3 in water. The formaldehyde quench solution contained 30% formaldehyde in water. The ferric nitrate reporter stock contained 8.5% w/v Fe(NO3)3 and 11.3% v/v HNO3 in water.
Assay Protocol: First, 10 μL aliquots of the GroEL/ES-dRho complex stock were dispensed into clear, 384-well polystyrene plates. […] The chaperonin-mediated refolding cycle was initiated by addition of 10 μL of ATP stock (reagent concentrations during refolding cycle: 50 nM GroEL, 60 nM GroES, 40 nM dRho, 1 mM ATP, and compounds of 250 μM to 114 nM, 3-fold dilution series). After incubating for 45 minutes at 37° C. for the refolding cycle, 30 μL of the thiocyanate enzymatic assay stock was added and incubated for 60 min at R.T. for the refolded rhodenase enzymatic reporter reaction. The reporter reaction was quenched by adding 10 μL of the formaldehyde quench stock, and then 40 μL of the ferric nitrate reporter stock was added to quantify the amount of thiocyanate produced during the enzymatic reporter reaction, which is proportional to the amount of dRho refolded by GroEL/ES. After incubating at R.T. for 15 min, the absorbance by Fe(SCN)3 was measured at 460 nm using a Molecular Devices SpectraMax Plus384 microplate reader. A second set of baseline control plates were prepared analogously, but without GroEL/ES-dRho protein binary solution, to correct for possible interference from compound absorbance or turbidity. […] Results presented represent the averages of IC50 values obtained from at least quadriplicate (duplicate of duplicate) replicates.
After generating the compound library, we next employed a series of well-established biochemical assays to evaluate compound inhibitory effects against the GroEUES chaperonin system (See FIG. 6 and FIG. 7). We used E. coli GroEUES as the surrogate chaperonin system for refolding of the reporter enzymes malate dehydrogenase (MDH) and rhodanese (Rho). Briefly, binary complexes are formed between GroEL and denatured MDH or Rho, which are then refolded to their native states upon addition of ATP and the GroES co-chaperonin. Enzymatic activities of refolded native MDH or Rho act as coupled reporters of GroEUES refolding functions since in the presence of chaperonin inhibitors, no functional reporter enzymes are generated.

The target of the next data set is T2, native Rho (rhodanese) (Bos taurus, UniProt P00586).
T2 construct: purchased Roche (so in the source) R1756
T2 sequence (P00586 1-297): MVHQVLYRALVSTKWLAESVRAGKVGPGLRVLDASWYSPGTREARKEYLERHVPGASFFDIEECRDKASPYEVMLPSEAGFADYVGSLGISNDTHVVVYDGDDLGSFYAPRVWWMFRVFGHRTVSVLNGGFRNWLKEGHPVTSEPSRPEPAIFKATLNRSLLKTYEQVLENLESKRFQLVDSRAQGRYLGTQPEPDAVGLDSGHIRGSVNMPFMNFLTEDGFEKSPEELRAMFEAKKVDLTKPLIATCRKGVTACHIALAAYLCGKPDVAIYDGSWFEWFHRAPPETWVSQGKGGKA
The experiment in a line: Counter-screen for inhibition of native rhodanese enzymatic activity. The data set is classed as biochemical. The conditions noted are these: for log(IC50) Native Rho Reporter: log of IC50 (μM scale), with standard deviation; for IC50: read-out: Biochemical Assay IC50 Native Rho Reporter; for inhibition of native Rho enzymatic activity (in words): false-positive counter-screen. As to the method: Reagent Preparations & Assay Protocol: Reagents were identical to those used in the GroEUES-dRho refolding assay described above; however, the assay protocol differed in the sequence of compound addition to the wells. Compounds were pin-transferred after the 60 minute incubation for the refolding cycle, but prior to the addition of the thiocyanate enzymatic assay stock. Thus, the refolding reactions were allowed to proceed for 60 min at 37° C. in the absence of test compounds, but the enzymatic activity of the refolded rhodanese reporter enzyme was monitored in the presence of test compounds (inhibitor concentration range during the enzymatic reporter reaction is 100 µM to 46 nM-3-fold dilutions). IC50 values for the rhodenase reporter enzyme were determined as described above. Results presented represent the averages of IC50 values obtained from at least quadriplicate (duplicate of duplicate) replicates.

Where [1] appears, read: log of IC50 (μM scale), with standard deviation.
The mark [2] stands for this setting: log of IC50 (μM scale), with standard deviation, read-out: log(IC50) GroEL/ES-dRho Refolding (converted).
Setting [3] is: read-out: Biochemical Assay IC50 GroEL/ES-dRho Refolding.

Like-named read-outs stand apart in the source and are kept apart here.

T1 sequence (P0A6F5 2-548): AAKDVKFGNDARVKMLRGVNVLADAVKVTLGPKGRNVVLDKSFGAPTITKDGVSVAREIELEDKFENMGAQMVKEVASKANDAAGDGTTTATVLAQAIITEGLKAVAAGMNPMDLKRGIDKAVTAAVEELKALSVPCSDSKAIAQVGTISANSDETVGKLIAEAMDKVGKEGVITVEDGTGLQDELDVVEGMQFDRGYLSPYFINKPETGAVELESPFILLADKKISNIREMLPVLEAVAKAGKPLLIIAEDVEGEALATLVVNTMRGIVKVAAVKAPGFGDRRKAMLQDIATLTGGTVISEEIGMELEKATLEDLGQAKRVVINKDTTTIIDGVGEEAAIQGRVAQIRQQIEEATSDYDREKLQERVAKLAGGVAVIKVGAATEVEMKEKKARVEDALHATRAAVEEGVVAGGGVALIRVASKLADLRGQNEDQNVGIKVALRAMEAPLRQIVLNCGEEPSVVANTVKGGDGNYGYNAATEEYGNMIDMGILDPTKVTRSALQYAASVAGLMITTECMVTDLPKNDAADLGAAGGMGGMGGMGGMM

Regarding `COc1c(Br)cc(Br)cc1C(=O)Nc1cccc(Cl)c1` [Compound 37, 3,5-Dibromo-N-(3-chlorophenyl)-2-methoxybenzamide], the CC50 at 48 h in “in vitro” is > 100 µM. Besides, the IC50 against E. coli GroEL/ES and at native Rho (rhodanese) was > 100 µM throughout. Moreover, on E. coli GroEL/ES (setting [1]), the “log(IC50) GroEL/ES-dRho Refolding” value was >2. For the same compound, the “log(IC50) Native Rho Reporter” value on native Rho (rhodanese) is reported as >2.
For `O=C(Nc1ccc(Sc2nc3ccccc3s2)cc1)c1cc(Br)cc(Br)c1O` [Compound 5, N-(4-(Benzo[d]thiazol-2-ylthio)phenyl)-3,5-dibromo-2-hydroxybenzamide], the IC50 is 1.32 µM on E. coli GroEL/ES (setting [2]) and 1.3 µM at E. coli GroEL/ES (setting [3]).
With `O=C(Nc1ccc(Sc2nc3ccccc3s2)c(Cl)c1)c1cc(Br)cc(Br)c1O` [Compound 1, N-(4-(Benzo[d]thiazol-2-ylthio)-3-chlorophenyl)-3,5-dibromo-2-hydroxybenzamide], the results for the IC50 on E. coli GroEL/ES (setting [2]), on E. coli GroEL/ES (setting [3]) and at native Rho (rhodanese) were 1.55 µM, 1.5 µM and > 100 µM, respectively.
As for `O=C(Nc1ccc(Sc2nc3ccccc3s2)c(Cl)c1)c1ccccc1` [Compound 19, N-(4-(Benzo[d]thiazol-2-ylthio)-3-chlorophenyl)benzamide], the IC50 against E. coli GroEL/ES and on native Rho (rhodanese) was > 100 µM in each case.
`O=C(Nc1ccc(Sc2nc3ccccc3s2)cc1)c1cc(Br)ccc1O` [Compound 7, N-(4-(Benzo[d]thiazol-2-ylthio)phenyl)-5-bromo-2-hydroxybenzamide]: the “log(IC50) GroEL/ES-dRho Refolding” value on E. coli GroEL/ES (setting [1]) is 1.48 ± 0.11. Further, the IC50 is 30 µM on E. coli GroEL/ES (setting [3]) and > 100 µM on native Rho (rhodanese). Also, the “inhibition of native Rho enzymatic activity (in words)” value (from here on “inhibition”) at native Rho (rhodanese) was “inactive against the reporter enzymes”.
Take `O=C(Nc1cccc(Cl)c1)c1ccccc1O` [Compound 12, N-(3-Chlorophenyl)-2-hydroxybenzamide]: the IC50 against E. coli GroEL/ES was > 100 µM. Also, the “log(IC50) GroEL/ES-dRho Refolding” value at E. coli GroEL/ES (setting [1]) was >2. Moreover, at native Rho (rhodanese), the “log(IC50) Native Rho Reporter” value was >2 and the IC50 is > 100 µM.
`COc1c(Br)cccc1C(=O)Nc1ccc(Sc2nc3ccccc3s2)c(Cl)c1` [Compound 30, N-(4-(Benzo[d]thiazol-2-ylthio)-3-chlorophenyl)-3-bromo-2-methoxybenzamide]: in “in vitro”, the CC50 at 48 h was > 100 µM. In addition, the IC50 at E. coli GroEL/ES is > 100 µM.
On to `O=C(Nc1ccc(Sc2nc3ccccc3s2)cc1)c1cccc(Br)c1O` [Compound 6, N-(4-(Benzo[d]thiazol-2-ylthio)phenyl)-3-bromo-2-hydroxybenzamide], for which the results for the IC50 on E. coli GroEL/ES (setting [2]) and on E. coli GroEL/ES (setting [3]) were 13.8 µM and 14 µM, respectively. The “inhibition” value on native Rho (rhodanese) is “inactive against the reporter enzymes”.
For the compound `COc1c(Br)cccc1C(=O)Nc1ccc(Sc2nc3ccccc3s2)cc1` [Compound 34, N-(4-(Benzo[d]thiazol-2-ylthio)phenyl)-3-bromo-2-methoxybenzamide], in “in vitro”, the CC50 at 48 h is > 100 µM.
Turning to `O=C(Nc1cccc(Cl)c1)c1cc(Br)cc(Br)c1` [Compound 23, 3,5-Dibromo-N-(3-chlorophenyl)benzamide], on E. coli GroEL/ES, the IC50 is > 100 µM. The “log(IC50) GroEL/ES-dRho Refolding” value at E. coli GroEL/ES (setting [1]) is >2. Besides, on native Rho (rhodanese), the “log(IC50) Native Rho Reporter” value was >2 and the IC50 is > 100 µM.
Turning to `O=C(Nc1ccccc1)c1cc(Br)ccc1O` [Compound 15, 5-Bromo-2-hydroxy-N-phenylbenzamide], on E. coli GroEL/ES, the IC50 is > 100 µM. The “log(IC50) GroEL/ES-dRho Refolding” value at E. coli GroEL/ES (setting [1]) is reported as >2. Besides, on native Rho (rhodanese), the “log(IC50) Native Rho Reporter” value is listed as >2 and the IC50 was > 100 µM.
With `O=C(Nc1ccc(Sc2nc3ccccc3s2)cc1)c1cccc(Br)c1` [Compound 21, N-(4-(Benzo[d]thiazol-2-ylthio)phenyl)-3-bromobenzamide], the IC50 on E. coli GroEL/ES and on native Rho (rhodanese) was > 100 µM each time.
`O=C(Nc1ccccc1)c1cccc(Br)c1O` [Compound 14, 3-Bromo-2-hydroxy-N-phenylbenzamide]: the IC50 against E. coli GroEL/ES is > 100 µM. Besides, on E. coli GroEL/ES (setting [1]), the “log(IC50) GroEL/ES-dRho Refolding” value is recorded as >2. Moreover, on native Rho (rhodanese), the “log(IC50) Native Rho Reporter” value is given as >2 and the IC50 is > 100 µM.
Take `O=C(Nc1ccc(Sc2nc3ccccc3s2)c(Cl)c1)c1cc(Br)ccc1O` [Compound 3, N-(4-(Benzo[d]thiazol-2-ylthio)-3-chlorophenyl)-5-bromo-2-hydroxybenzamide]: on E. coli GroEL/ES (setting [1]), the “log(IC50) GroEL/ES-dRho Refolding” value is reported as 1.04 ± 0.38. For the same compound, on E. coli GroEL/ES (setting [3]), the IC50 is 11 µM. For the same compound, at native Rho (rhodanese), the “inhibition” value was “inactive against the reporter enzymes” and the IC50 is > 100 µM.
Consider `O=C(Nc1cccc(Cl)c1)c1cc(Br)ccc1O` [Compound 11, 5-Bromo-N-(3-chlorophenyl)-2-hydroxybenzamide], for which, on E. coli GroEL/ES, the IC50 is > 100 µM. For the same compound, the “log(IC50) GroEL/ES-dRho Refolding” value at E. coli GroEL/ES (setting [1]) was >2. Besides, at native Rho (rhodanese), the “log(IC50) Native Rho Reporter” value is recorded as >2 and the IC50 was > 100 µM.
Take `O=C(Nc1ccc(Sc2nc3ccccc3s2)c(Cl)c1)c1cccc(Br)c1O` [Compound 2, N-(4-(Benzo[d]thiazol-2-ylthio)-3-chlorophenyl)-3-bromo-2-hydroxybenzamide]: the “log(IC50) GroEL/ES-dRho Refolding” value on E. coli GroEL/ES (setting [1]) turned out to be 0.58 ± 0.15. Further, at E. coli GroEL/ES (setting [3]), the IC50 turned out to be 3.8 µM. The “inhibition” value at native Rho (rhodanese) was “inactive against the reporter enzymes”.
`O=C(Nc1ccc(Sc2nc3ccccc3s2)c(Cl)c1)c1ccccc1O` [Compound 4, N-(4-(Benzo[d]thiazol-2-ylthio)-3-chlorophenyl)-2-hydroxybenzamide]: the “log(IC50) GroEL/ES-dRho Refolding” value on E. coli GroEL/ES (setting [1]) amounted to 1.80 ± 0.27. The IC50 was 63 µM at E. coli GroEL/ES (setting [3]) and > 100 µM at native Rho (rhodanese).
Regarding `O=C(Nc1ccc(Sc2nc3ccccc3s2)cc1)c1ccccc1O` [Compound 8, N-(4-(Benzo[d]thiazol-2-ylthio)phenyl)-2-hydroxybenzamide], on E. coli GroEL/ES (setting [1]), the “log(IC50) GroEL/ES-dRho Refolding” value is 1.94 ± 0.23. The IC50 is 87 µM on E. coli GroEL/ES (setting [3]) and > 100 µM at native Rho (rhodanese).
Consider `CO[C@H]1/C=C/O[C@@]2(C)Oc3c(C)c(O)c4c(O)c(c(/C=N/N5CCN(C)CC5)c(O)c4c3C2=O)NC(=O)/C(C)=C\C=C\[C@H](C)[C@H](O)[C@@H](C)[C@@H](O)[C@@H](C)[C@H](OC(C)=O)[C@@H]1C` [Rifampicin, rifampicin, reference compound], for which the CC50 at 48 h in the data set “in vitro” was > 100 µM.
